Data on six compounds can be found in US11890288B2, “Sulfonamide or sulfinamide compound having effect of inducing BRD4 protein degradation and pharmaceutical use thereof” (MITSUBISHI TANABE PHARMA CORPORATION, priority 2020, dated 2024).

Where two headings read alike, the source gives them in different places.

In series [1] the test system is Human breast cancer MDA-MB-436 cells. Briefly: Cytotoxic action on MDA-MB-436 cells (WST-8, 96 hr). It counts as cell-based. As for the experimental part:
(§1) The cytotoxic action of the compound of the present invention against cancer cells that acquired resistance to conventional BRD4 protein degradation inducing agents was evaluated in vitro. In this experiment, ARV-771 (Proc Natl Acad Sci USA. volume 113, pages 7124-7129 (28 Jun. 2016)) and MZ1 (ACS Chem Biol. Volume 10, pages 1770-1777 (21 Aug. 2015)), in which a ligand for VHL and BRD4 protein inhibitor are linked, were used as a conventional BRD4 protein degradation inducing agent serving as a comparison control. Human breast cancer MDA-MB-436 cells and MDA-MB-436 cells that acquired resistance to conventional BRD4 protein degradation inducing agents (MDA-MB-436 w/o2 cells) were suspended in 10% FBS/RPMI1640, seeded in a 96 well plate and cultured at 5% CO2, 37° C. overnight. A test compound dissolved in DMSO was diluted with 10% FBS/RPMI1640 and added and the cells were further cultured for 96 hr. After culturing, the viable cell number was measured using a cell number measurement WST-8 kit (Kishida Chemical Co., Ltd.). As a control, the measurement was performed under conditions free of the test compound. The cytotoxic activity of the compound of the present invention against each cell is shown in IC50 value in Table 4. The IC50 value is a concentration of the compound showing 50% cell survival rate when the cell survival rate thereof under compound untreated condition is 100%. It was calculated from the straight line connecting the cell survival rate at two points enclosing the 50% cell survival rate and the compound concentration. In addition, the tolerance (fold) was calculated by dividing the IC50 value in MDA-MB-436 w/o2 cells by the IC50 value in MDA-MB-436 cells.
In general terms: Tetrazolium dyes change colour on reduction, which living cells bring about.

A further series relates to MDA-MB-436 w/o2 cells. Briefly: Cytotoxic action on MDA-MB-436 w/o2 cells that acquired resistance to conventional BRD4 degraders (WST-8, 96 hr). It counts as cell-based, human. The settings on record: for resistance: IC50 in MDA-MB-436 w/o2 cells divided by IC50 in MDA-MB-436 cells; for IC50: MDA-MB-436 w/o2 cells, 96 hr; for resistance of MDA-MB-436 w/o2 cells to the substance (in words): MDA-MB-436 w/o2 versus MDA-MB-436 cells. As for the experimental part: as §1

The target in series [2] is T1, BRD4 protein (Homo sapiens (Human), UniProt O60885). Briefly: BRD4 protein degradation inducing action in MDA-MB-436 cells (Western blot, 6 hr). The series is classed as cell-based. The settings on record: MDA-MB-436 cell. As for the experimental part:
(§2) The BRD4 protein degradation inducing action of the compound of the present invention on the cancer cells that acquired resistance to conventional BRD4 protein degradation inducing agents was evaluated in vitro. In this experiment, ARV-771 and MZ1, in which a ligand for VHL and BRD4 protein inhibitor are linked, were used as a conventional BRD4 protein degradation inducing agent serving as a comparison control. Human breast cancer MDA-MB-436 cells and MDA-MB-436 cells that acquired resistance to conventional BRD4 protein degradation inducing agents (MDA-MB-436 w/o2 cells) were suspended in 10% FBS/RPMI1640, seeded in a 6 well plate and cultured at 5% CO2, 37° C. overnight. A test compound dissolved in DMSO was diluted with 10% FBS/RPMI1640 and added and the cells were further cultured for 6 hr. After culturing, the cells were lysed in a solubilizing solution (10 mM Tris-HCl, pH 7.4, 0.1% NP-40, 0.1% sodium deoxycholate, 0.1% SDS, 0.15 M NaCl, 1 mM EDTA, 10 μg/mL aprotinin). The solution was electrophoresed and proteins in acrylamide gel were transferred to Immobilon PVDF membrane using a semi-dry transfer device. […] After immersing in a secondary antibody solution for 1 hr, the object protein on the membrane was detected using ECL Prime Western Blotting Detection System or ECL Select Western Blotting Detection System (GE Healthcare).

The target of series [3] is T1, BRD4 protein. Briefly: BRD4 protein degradation inducing action in MDA-MB-436 w/o2 cells (Western blot, 6 hr). It counts as cell-based. The following applies: MDA-MB-436 w/o2 cell. As for the experimental part:
as §2

For series [4], the system named is human prostate cancer LNCaP cells. Briefly: Cytotoxic action on LNCaP cells (WST-8, 96 hr). The series is classed as cell-based. The following applies: 96 hr culture. In outline:
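Cells in 10% FBS/RPMI1640 plated overnight at 37° C, 5% CO2, then exposed to compound (DMSO stock diluted in medium) for 96 hr. Viable cells measured by WST-8. IC50 = concentration giving 50% survival versus untreated, interpolated linearly between the two bracketing points.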

The target in series [5] is T1, BRD4 protein. Briefly: BRD4 protein degradation inducing action in LNCaP cells (immunofluorescence, 6 hr). The series is classed as cell-based. The following applies: anti-BRD4 fluorescence intensity. In short, it runs like this:
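Read-out is BRD4 immunofluorescence intensity (560/572 nm) after 6 hr compound treatment of LNCaP cells in 10% FBS/RPMI1640, with fixation, permeabilization and anti-BRD4 staining. Linear interpolation between the two concentrations flanking 50% of untreated intensity gives DC50.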

Series [6] addresses T1, BRD4 protein. Briefly: Inhibitory action on binding of BRD4 protein and acetylated histone H4 (TR-FRET). The settings on record: BRD4-1 (GST) and acetylated histone H4 peptide, 3 hr. As for the experimental part:
The inhibitory action of the compound of the present invention on the binding of BRD4 protein and a ligand thereof (acetylated histone H4) was evaluated by the time-resolved fluorescence resonance energy transfer (TR-FRET) method using EPIgeneous™ Binding Domain Kit A (Cisbio), BRD4-1 (GST) (Reaction Biology Corp) and [Lys(Ac)5/8/12/16]-Histone H4(1-21)-GGK (Biotin) (Eurogentec). In this experiment, (+)-JQ1 (Nature volume 468, pages 1067-1073 (23 Dec. 2010)) known to have an inhibitory activity on the binding of BRD4 protein and acetylated histone H4 therefor was used as a positive control drug. A test compound dissolved in DMSO was diluted with attached Diluent Buffer, added to a 384 well white plate, and BRD4-1 (GST) and [Lys(Ac)5/8/12/16]-Histone H4(1-21)-GGK (Biotin) were further added. Thereafter, Streptavidin-d2 conjugate and Anti-GST-Eu^3+ Cryptate Conjugate were added and the cells were incubated at room temperature for 3 hr. The binding amount of the BRD4 protein and acetylated histone H4 was measured as the fluorescence intensity (excitation: 314 nm/emission: 620 nm and excitation: 314 nm/emission: 665 nm). […] It was calculated from the straight line connecting the degradation rate at two points enclosing the 50% fluorescence intensity and the compound concentration.

Regarding `Cc1ncsc1-c1ccc([C@H](C)NC(=O)[C@@H]2C[C@@H](O)CN2C(=O)[C@@H](NC(=O)COCCCOCCNC(=O)C[C@@H]2N=C(c3ccc(Cl)cc3)c3c(sc(C)c3C)-n3c(C)nnc32)C(C)(C)C)cc1` [ARV-771, reference compound], the figures for the IC50 (in series [1]; in the series on MDA-MB-436 w/o2 cells) were 5.6 nM and 860 nM, respectively. In the series on MDA-MB-436 w/o2 cells, this compound came in with a resistance of 150 fold. In addition, the “resistance of MDA-MB-436 w/o2 cells to the substance (in words)” value in the series on MDA-MB-436 w/o2 cells is reported as “showed resistance”. The “degradation of BRD4 protein (Western blot, FIG. 1)” value on BRD4 protein [2] was “induced degradation of BRD4 protein”; at BRD4 protein [3], “did not induce degradation”.
On to `COC(=O)C[C@@H]1N=C(c2ccc(-c3ccc(C(=O)NCCc4ccc(S(=O)(=O)Nc5ccc(C)c6c(C#N)c[nH]c56)cc4)cc3)cc2)c2c(sc(C)c2C)-n2c(C)nnc21` [Example 11, methyl [(6S)-4-{4′-[(2-{4-[(3-cyano-4-methyl-1H-indol-7-yl)sulfamoyl]phenyl}ethyl)carbamoyl][1,1′-biphenyl]-4-yl}-2,3,9-trimethyl-6H-thieno[3,2-f][1,2,4]triazolo[4,3-a][1,4]diazepin-6-yl]acetate], for which the IC50 is 0.074 nM in series [4], 0.27 nM in series [1] (Homo sapiens), 0.31 nM in the series on MDA-MB-436 w/o2 cells (Homo sapiens) and 5.7 nM on BRD4 protein [6]. At BRD4 protein [5], this compound had a 50% degradation concentration (DC50) of 0.083 nM. Also, the resistance with MDA-MB-436 w/o2 cells was determined as 1.2 fold.
For `CCc1ccc(NS(=O)(=O)c2ccc(CNC(=O)c3ccc(-c4ccc(C5=N[C@@H](CC(=O)OC)c6nnc(C)n6-c6sc(C)c(C)c65)cc4)cc3)cc2)c2[nH]cc(C#N)c12` [Example 43, methyl [(6S)-4-{4′-[({4-[(3-cyano-4-ethyl-1H-indol-7-yl)sulfamoyl]phenyl}methyl)carbamoyl][1,1′-biphenyl]-4-yl}-2,3,9-trimethyl-6H-thieno[3,2-f][1,2,4]triazolo[4,3-a][1,4]diazepin-6-yl]acetate], the IC50 in series [4] came to 0.23 nM; in series [1] (Homo sapiens), 0.34 nM; in the series with MDA-MB-436 w/o2 cells (Homo sapiens), 0.42 nM. Moreover, the DC50 on BRD4 protein [5] was found to be 0.12 nM. Further, the resistance in the series with MDA-MB-436 w/o2 cells is reported as 1.3 fold.
On to `COC(=O)C[C@@H]1N=C(c2ccc(-c3ccc(C(=O)NCCc4ccc(S(=O)(=O)Nc5ccc(C)c6c(C#N)c[nH]c56)cc4)cc3F)cc2)c2c(sc(C)c2C)-n2c(C)nnc21` [Example 46, methyl [(6S)-4-{4′-[(2-{4-[(3-cyano-4-methyl-1H-indol-7-yl)sulfamoyl]phenyl}ethyl)carbamoyl]-2′-fluoro[1,1′-biphenyl]-4-yl}-2,3,9-trimethyl-6H-thieno[3,2-f][1,2,4]triazolo[4,3-a][1,4]diazepin-6-yl]acetate], for which the IC50 in series [4] came out at 0.19 nM; in series [1] (Homo sapiens) it was 0.2 nM; with MDA-MB-436 w/o2 cells (Homo sapiens) it was 0.26 nM. This compound also returned a half-maximal degradation concentration (DC50) at BRD4 protein [5] of 0.11 nM. In the series with MDA-MB-436 w/o2 cells, this compound yielded a resistance of 1.3 fold.
Regarding `COC(=O)C[C@@H]1N=C(c2ccc(-c3ccc(C(=O)NCc4ccc(S(=O)(=O)Nc5ccc(C)c6c(C#N)c[nH]c56)cc4)nc3)cc2)c2c(sc(C)c2C)-n2c(C)nnc21` [Example 53, methyl [(6S)-4-(4-{6-[({4-[(3-cyano-4-methyl-1H-indol-7-yl)sulfamoyl]phenyl}methyl)carbamoyl]pyridin-3-yl}phenyl)-2,3,9-trimethyl-6H-thieno[3,2-f][1,2,4]triazolo[4,3-a][1,4]diazepin-6-yl]acetate], the concentration for half-maximal inhibition (IC50) turned out to be 0.16 nM in series [4], 0.21 nM in series [1] (Homo sapiens) and 0.32 nM with MDA-MB-436 w/o2 cells (Homo sapiens). This compound came in with a DC50 on BRD4 protein [5] of 0.078 nM. The compound also gave a resistance with MDA-MB-436 w/o2 cells of 1.5 fold.
In the case of `Cc1ncsc1-c1ccc(CNC(=O)[C@@H]2C[C@@H](O)CN2C(=O)[C@@H](NC(=O)COCCOCCOCCNC(=O)C[C@@H]2N=C(c3ccc(Cl)cc3)c3c(sc(C)c3C)-n3c(C)nnc32)C(C)(C)C)cc1` [MZ1, reference compound], the figures for the half-maximal inhibitory concentration (IC50) (in series [1]; with MDA-MB-436 w/o2 cells) were 1900 nM and greater than 50000 nM, respectively. Moreover, in the series on MDA-MB-436 w/o2 cells, the resistance is reported as greater than 26 fold. The “resistance of MDA-MB-436 w/o2 cells to the substance (in words)” value with MDA-MB-436 w/o2 cells is given as “showed resistance”. In addition, the “degradation of BRD4 protein (Western blot, FIG. 1)” value was “induced degradation of BRD4 protein” on BRD4 protein [2] and “did not induce degradation” at BRD4 protein [3].

Broadly, the IC50 is the midpoint of a concentration-inhibition curve. Usually DC50 stands for the midpoint of the concentration-degradation curve.
